The test system of data set [1] is phosphotyrosine (p-Tyr) in thioglycollate stimulated mouse macrophages. Description: Tyrosine phosphorylation assay (Western blot, anti-phosphotyrosine antibody). It is filed as cell-based. The settings on record: 20 μg/ml, 10 minutes, Western blot (FIG. 1). As for the experimental part: Thioglycollate stimulated mouse macrophages were treated for 10 minutes with 20 μg/ml of the tested compound in phosphate buffered saline (PBS) with 1% ethanol. Treatment with either 20 μg/ml of phosphatidylcholine or solvent (PBS with 1% ethanol) was used as a negative control. Treatment with 20 μg/ml CI-201 (1-hexadecyl-2-(4′-carboxy)butyl-sn-glycero-3-phosphothiocholine) was used as a positive control.
Proteins with phosphorylated tyrosine were then observed by Western blot, using a monoclonal anti-phosphotyrosine antibody. Western blotting for ERK1/2 was performed as a control for protein loading.

Data set [2] concerns Thioglycollate-elicited mouse peritoneal macrophages. Kind of data set: In vitro toxicity assay (crystal violet staining, cell numbers). The data set is classed as cell-based. The conditions noted are these: for Macrophage survival rate: 24 hours incubation, normalized to vehicle, mean ± SD, one of three experiments; for LD50: mouse peritoneal macrophages, 24 hours. On the procedure:
Thioglycollate-elicited mouse peritoneal macrophages were washed, counted and seeded (5×10^5 cells per well in 24-well plates) in triplicate wells in medium containing RPMI-1640, L-glutamine, 10% fetal calf serum (FCS) and antibiotics (penicillin/streptomycin). After a recovery period of 24 hours, the tested compound (or controls) was added to the cell medium at doses of 2, 10, 20, 50, 100 or 150 μg/ml, keeping the added volume equal in all treatments by complementing the volume with solvent.
Following addition of the compounds, the cells were incubated for an additional 24 hours, after which the cells were washed, fixed with a solution of 10% methanol/10% acetic acid and stained with crystal violet (0.4% in 20% ethanol). Cell numbers were measured by determining optical density at 595 nm. Cells incubated with vehicle (PBS with 1% ethanol) were used as a control, to which cell numbers in treated samples were normalized. Each experiment was performed three times.

For data set [3], the system named is IL12/23p40 production by peptidoglycan-activated BMDCs. Description: In vitro IL12/23p40 assay (ELISA). The data set is classed as cell-based, mouse. The settings on record: 1 to 20 μg/ml added for 1 hour, then 24 hours with 10 μg/ml peptidoglycan (FIG. 2). On the procedure: Bone marrow derived cells (BMDCs) were obtained from the femur and tibia of female C57BL mice. Bone-marrow was flushed out femur and tibia with cold RPMI-1640. A cell suspension was prepared, and erythrocytes were removed using red blood cell (RBC) lysis buffer. […] Cells were then washed, resuspended in the same buffer, and depleted from B and T cells on a Midi-Macs separation unit through a LD or LS column (Miltenyi Biotech). The cells were prepared freshly for each experiment.
The depleted bone marrow cells were counted, washed and seeded at a concentration of 10^6 cells/ml in medium containing RPMI-1640, L-glutamine, β-mercaptoethanol, 10% fetal calf serum (FCS), antibiotics (penicillin/streptomycin) and 20 ng/ml of mouse GM-CSF (granulocyte-macrophage colony-stimulating factor). Medium was replaced every other day. On days 5-6 post culturing, cells were collected, counted and seeded at a concentration of 10^6 cells/ml in the above medium. CI-211 was then added for 1 hour. The cells were activated for IL12/23p40 production by incubation for 24 hours with 10 μg/ml peptidoglycan (PGN). Cytokine production from the supernatant was measured by ELISA. Activated cells without CI-211 were used as the control.
(In general: An ELISA detects its analyte on a solid surface through an enzyme-linked reagent.)

Data set [4] concerns Thioglycollate-elicited mouse peritoneal macrophages. Description: In vitro toxicity assay (crystal violet staining, cell numbers). The data set is classed as cell-based. The conditions noted are these: 1, 2.5, 5, 10 or 20 μg/ml.

3 molecules from patent publication US8999960B2, “Oxidized thiophospholipid compounds and uses thereof” (Vascular Biogenics Ltd., priority 2008, dated 2015) can be followed below.

Several values for one entry are separate records, joined by “and”; a condition that tells them apart may be missing. Equal entries are not always repeated.

With “1-hexadecyl-2-(4-carboxy)butyl-sn-glycero-3-thiophosphorylcholine [CI-211]”, the tyrosine phosphorylation levels entry in data set [1] is reported as “reduced”. For the same molecule, the Macrophage survival rate in data set [2] (2 μg/ml) is 124.7 ± 11.4% and 113.2 ± 7% and 90.4 ± 22.4%; in data set [2] (10 μg/ml), 111.6 ± 28.8% and 118.4 ± 4.2% and 127.9 ± 11.5%. Further, the LD50 entry in data set [2] was “above 100 μg/ml and > 167 μM”. The IL12/23p40 secretion result in data set [3] is listed as “decreased”. Besides, the “toxicity at the concentrations used in the IL12/23p40 assay” value in data set [4] is “non-toxic”.
Regarding `CCCCCCCCCCCCCCCCOC[C@H](COP(=O)([O-])OCC[N+](C)(C)C)OCCCCC(=O)O` [CI-201, 1-hexadecyl 2 (4 carboxy)butyl-sn-glycero-3-phosphocholine, reference compound], the tyrosine phosphorylation levels entry in data set [1] was “reduced”.
For `CCCCCCCCCCCCCCCCOCC(COP(O)(=S)OCCN)OCCCCC(=O)O` (stereo not drawn) [CI-212, 1-hexadecyl-2-(4-carboxy)butyl-sn-glycero-3-O-thiophosphorylethanolamine], the tyrosine phosphorylation levels result in data set [1] is on record as “reduced”. In addition, the Macrophage survival rate was 98.7 ± 10.3% and 77.5 ± 5.5% and 80.8 ± 31% in data set [2] (2 μg/ml); 90.6 ± 21.4% and 75.6 ± 9.5% and 97.5 ± 36.4% in data set [2] (20 μg/ml); 71.4 ± 11.4% and 55.1 ± 18.9% and 97.1 ± 48.1% in data set [2] (50 μg/ml). Also, the LD50 result in data set [2] was “above 50 μg/ml and > 90 μM”.
